According to PubChem BioAssay AID1918993 (Molecular Pharmacology Branch, DTP, NCI, 2023):
Each block holds one compound with its values, some of them ahead of it.

Test system: 233499-124-R-J3-PDC complex spheroid growth
Assay: Anticancer human tumor 233499-124-R-J3-PDC patient-derived colon adenocarcinoma cell line growth inhibition [AhR]
Settings: for IC50: curve of first compound; for viability, T/C: stronger effect = lower value
Description: Multicellular complex tumor spheroid response to aryl hydrocarbon receptor antagonists in combination with a variety of drugs and investigational agents in selected tumor cell lines
The current study was undertaken to assess response to aryl hydrocarbon receptor antagonists in combination with standard-of-care drugs and investigational agents in solid tumor complex spheroid models. Complex spheroids include a stromal component modeled by human endothelial cells (HUVEC) and fibroblasts modeled by human mesenchymal stem cells (MSCs). The concentration ranges selected for each drug and investigational agent were based upon clinically achievable concentrations if the clinical Cmax of the agent was known.
Compounds. The drugs and investigational agents: BAY 2416964 (NSC825713), GNF351 (NSC835774), CH-223191 (NSC835775), CPI-455 (NSC825282), aza-TdCyd (NSC777586), decitabine (NSC127716), belinostat (NSC758774), entinostat (NSC756642), pevonedistat (NSC761192), tazemetostat (NSC777109), talazoparib (NSC765396), olaparib (NSC753686), selinexor (NSC780203), nedisertib (M3814, NSC802822), bortezomib (NSC756655), venetoclax (NSC766270), doxorubicin (NSC123127), elimusertib (BAY189344, NSC800525), ceralasertib (AZD6738, NSC777638), TAK-243 (NSC785004), alisertib (NSC759677), etoposide (NSC141540), topotecan (NSC609699), eribulin (NSC707389), gemcitabine (NSC613327), carboplatin (NSC241240), cisplatin (NSC119875), and SN-38 (NSC673596) were obtained from the National Cancer Institute (NCI) Developmental Therapeutics Program Chemical Repository (32). The FDA-approved anticancer drug set is available from the Developmental Therapeutics Program at https://dtp.cancer.gov/organization/dscb/obtaining/available plates.htm. […] The stock solutions were prepared in dimethyl sulfoxide (DMSO, Sigma-Aldrich, St. Louis, MO, cat. D2650), except for the platinum compounds which were prepared in saline (Quality Biological, Gaithersburg, MD, cat. 114-055-101), at 800-fold the tested concentration and stored at -70 degrees C prior to their use. All drugs and investigational agents were tested over a range starting from a high concentration at or near the clinical Cmax and decreasing in half-log increments. If the clinical Cmax for an agent had not been determined, the highest concentration tested was 10 microM (Table 1).
Cell Culture. All cells were maintained in an incubator at 37 degrees C and 5% CO2 with 95% humidity. The PDC lines were cultured according to standard operating procedures established by the NCI PDMR (https://pdmr.cancer.gov). Briefly, all PDCs were thawed and cultured in Matrigel-coated flasks prepared with a working solution of 1X Ham's F-12 nutrient mix, without supplementation (Invitrogen, Waltham, MA, cat. 11765054), 100 U/mL penicillin-streptomycin (Invitrogen, cat. 15140122), and 2.5% Matrigel (Corning Inc., Corning, NY, cat. 354248) for the first three passages. All PDCs were cultured in complete DMEM/F-12 media containing advanced DMEM/F-12 (Invitrogen, cat. 12634028), 4.9% defined fetal bovine serum, heat inactivated (HyClone Laboratories Inc., Logan, UT, cat. SH30070.03HI), 389 ng/mL hydrocortisone (Sigma-Aldrich, cat. H4001), 9.7 ng/mL human EGF recombinant protein (Invitrogen, cat. PHG0313), 23.4 microg/mL adenine (Sigma-Aldrich, cat. A2786), 97.3 U/mL penicillin-streptomycin (Invitrogen, cat. 15140122), 1.9 mM L-glutamine (Invitrogen, cat. 25030081), and 9.7 microM Y-27632 dihydrochloride (Tocris Bioscience, Bristol, United Kingdom, cat. 1254). The PDCs were cultured in complete DMEM/F12 media without 10 microM Y-27632 dihydrochloride for at least two passages prior to the screen. The established cell lines NCI-H1341 and […] were cultured in DMEM/F-12, HEPES (Invitrogen, cat. 11330032), 5% defined fetal bovine serum (HyClone Laboratories Inc., cat. SH30070.03), ITS premix universal culture supplement [insulin (5 microg/mL), transferrin (5 microg/mL), and selenious acid (5 ng/mL)] […]

[1] = second compound 0.1 µM, first compound 0.0316 µM
[2] = second compound 0.1 µM, first compound 0.1 µM
[3] = second compound 0.316 µM, first compound 0.0316 µM
[4] = second compound 0.316 µM, first compound 0.1 µM
[5] = second compound 1 µM, first compound 0.0316 µM
[6] = second compound 1 µM, first compound 0.1 µM
[7] = second compound 3.16 µM, first compound 0.0316 µM
[8] = second compound 3.16 µM, first compound 0.1 µM
[9] = second compound 10 µM, first compound 0.0316 µM
[10] = second compound 10 µM, first compound 0.1 µM
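Also: spheroids exposed to agents for seven days before reading.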

- IC50 (second compound 0.1 µM): > 100 nM
- IC50 (second compound 0.316 µM): > 100 nM
- IC50 (second compound 1 µM): > 100 nM
- IC50 (second compound 3.16 µM): > 100 nM
- IC50 (second compound 10 µM): > 100 nM
Structure (SMILES): CC[C@@]1(O)C(=O)OCc2c1cc1n(c2=O)Cc2cc3c(CN(C)C)c(O)ccc3nc2-1 + CC(CO)NC(=O)c1cc(-c2ccc(Cl)cc2)nn(-c2cnn(C)c2)c1=O
- viability, T/C (second compound 0.1 µM, first compound 0.000316 µM): 99.5%
- viability, T/C (second compound 0.1 µM, first compound 0.001 µM): 92.5%
- viability, T/C (second compound 0.1 µM, first compound 0.00316 µM): 95.3%
- viability, T/C (second compound 0.1 µM, first compound 0.01 µM): 87.2%
- viability, T/C [1]: 84.1%
- viability, T/C [2]: 57.7%
- viability, T/C (second compound 0.316 µM, first compound 0.000316 µM): 87.4%
- viability, T/C (second compound 0.316 µM, first compound 0.001 µM): 94.6%
- viability, T/C (second compound 0.316 µM, first compound 0.00316 µM): 89%
- viability, T/C (second compound 0.316 µM, first compound 0.01 µM): 99.5%
- viability, T/C [3]: 89.6%
- viability, T/C [4]: 68.9%
- viability, T/C (second compound 1 µM, first compound 0.000316 µM): 93%
- viability, T/C (second compound 1 µM, first compound 0.001 µM): 90%
- viability, T/C (second compound 1 µM, first compound 0.00316 µM): 89.3%
- viability, T/C (second compound 1 µM, first compound 0.01 µM): 88.8%
- viability, T/C [5]: 81.9%
- viability, T/C [6]: 65.3%
- viability, T/C (second compound 3.16 µM, first compound 0.000316 µM): 81.3%
- viability, T/C (second compound 3.16 µM, first compound 0.001 µM): 82.3%
- viability, T/C (second compound 3.16 µM, first compound 0.00316 µM): 84.6%
- viability, T/C (second compound 3.16 µM, first compound 0.01 µM): 99.6%
- viability, T/C [7]: 88%
- viability, T/C [8]: 75%
- viability, T/C (second compound 10 µM, first compound 0.000316 µM): 81.5%
- viability, T/C (second compound 10 µM, first compound 0.001 µM): 80.1%
- viability, T/C (second compound 10 µM, first compound 0.00316 µM): 81.9%
- viability, T/C (second compound 10 µM, first compound 0.01 µM): 68.6%
- viability, T/C [9]: 54.9%
- viability, T/C [10]: 56.1%

- IC50 (second compound 0.1 µM): 300 nM
- IC50 (second compound 0.316 µM): > 300 nM
- IC50 (second compound 1 µM): > 300 nM
- IC50 (second compound 3.16 µM): > 300 nM
- IC50 (second compound 10 µM): > 300 nM
Structure (SMILES): CCc1c2c(nc3ccc(O)cc13)-c1cc3c(c(=O)n1C2)COC(=O)[C@]3(O)CC + CC(CO)NC(=O)c1cc(-c2ccc(Cl)cc2)nn(-c2cnn(C)c2)c1=O
- viability, T/C (second compound 0.1 µM, first compound 0.000949 µM): 87.3%
- viability, T/C (second compound 0.1 µM, first compound 0.003 µM): 98.9%
- viability, T/C (second compound 0.1 µM, first compound 0.00949 µM): 73.4%
- viability, T/C (second compound 0.1 µM, first compound 0.03 µM): 50.5%
- viability, T/C (second compound 0.1 µM, first compound 0.0949 µM): 60.6%
- viability, T/C (second compound 0.1 µM, first compound 0.3 µM): 55.1%
- viability, T/C (second compound 0.316 µM, first compound 0.000949 µM): 108%
- viability, T/C (second compound 0.316 µM, first compound 0.003 µM): 105%
- viability, T/C (second compound 0.316 µM, first compound 0.00949 µM): 76.4%
- viability, T/C (second compound 0.316 µM, first compound 0.03 µM): 56.2%
- viability, T/C (second compound 0.316 µM, first compound 0.0949 µM): 57.9%
- viability, T/C (second compound 0.316 µM, first compound 0.3 µM): 66.4%
- viability, T/C (second compound 1 µM, first compound 0.000949 µM): 103%
- viability, T/C (second compound 1 µM, first compound 0.003 µM): 94.4%
- viability, T/C (second compound 1 µM, first compound 0.00949 µM): 80.5%
- viability, T/C (second compound 1 µM, first compound 0.03 µM): 64.7%
- viability, T/C (second compound 1 µM, first compound 0.0949 µM): 57.9%
- viability, T/C (second compound 1 µM, first compound 0.3 µM): 62.5%
- viability, T/C (second compound 3.16 µM, first compound 0.000949 µM): 92.8%
- viability, T/C (second compound 3.16 µM, first compound 0.003 µM): 88.2%
- viability, T/C (second compound 3.16 µM, first compound 0.00949 µM): 71.6%
- viability, T/C (second compound 3.16 µM, first compound 0.03 µM): 58%
- viability, T/C (second compound 3.16 µM, first compound 0.0949 µM): 72.8%
- viability, T/C (second compound 3.16 µM, first compound 0.3 µM): 48.6%
- viability, T/C (second compound 10 µM, first compound 0.000949 µM): 93.8%
- viability, T/C (second compound 10 µM, first compound 0.003 µM): 70.4%
- viability, T/C (second compound 10 µM, first compound 0.00949 µM): 77.9%
- viability, T/C (second compound 10 µM, first compound 0.03 µM): 75.4%
- viability, T/C (second compound 10 µM, first compound 0.0949 µM): 49.1%
- viability, T/C (second compound 10 µM, first compound 0.3 µM): 59.7%

- IC50 (second compound 0.1 µM): 136 nM
- IC50 (second compound 0.316 µM): 113 nM
- IC50 (second compound 1 µM): 149 nM
- IC50 (second compound 3.16 µM): 202 nM
- IC50 (second compound 10 µM): 130 nM
Structure (SMILES): Nc1ccn(C2OC(CO)C(O)C2(F)F)c(=O)n1 (stereo not given) + CC(CO)NC(=O)c1cc(-c2ccc(Cl)cc2)nn(-c2cnn(C)c2)c1=O
- viability, T/C [1]: 58.7%
- viability, T/C [2]: 58.9%
- viability, T/C (second compound 0.1 µM, first compound 0.316 µM): 18.6%
- viability, T/C (second compound 0.1 µM, first compound 1 µM): 30.1%
- viability, T/C (second compound 0.1 µM, first compound 3.16 µM): 24.2%
- viability, T/C (second compound 0.1 µM, first compound 10 µM): 29.7%
- viability, T/C [3]: 50%
- viability, T/C [4]: 54%
- viability, T/C (second compound 0.316 µM, first compound 0.316 µM): 33.6%
- viability, T/C (second compound 0.316 µM, first compound 1 µM): 35%
- viability, T/C (second compound 0.316 µM, first compound 3.16 µM): 29.3%
- viability, T/C (second compound 0.316 µM, first compound 10 µM): 35.9%
- viability, T/C [5]: 61%
- viability, T/C [6]: 57.8%
- viability, T/C (second compound 1 µM, first compound 0.316 µM): 35.3%
- viability, T/C (second compound 1 µM, first compound 1 µM): 37.7%
- viability, T/C (second compound 1 µM, first compound 3.16 µM): 28.4%
- viability, T/C (second compound 1 µM, first compound 10 µM): 36.1%
- viability, T/C [7]: 65%
- viability, T/C [8]: 69.7%
- viability, T/C (second compound 3.16 µM, first compound 0.316 µM): 38.9%
- viability, T/C (second compound 3.16 µM, first compound 1 µM): 31.4%
- viability, T/C (second compound 3.16 µM, first compound 3.16 µM): 37.9%
- viability, T/C (second compound 3.16 µM, first compound 10 µM): 42.4%
- viability, T/C [9]: 60.6%
- viability, T/C [10]: 54.1%
- viability, T/C (second compound 10 µM, first compound 0.316 µM): 32.1%
- viability, T/C (second compound 10 µM, first compound 1 µM): 31.3%
- viability, T/C (second compound 10 µM, first compound 3.16 µM): 51.9%
- viability, T/C (second compound 10 µM, first compound 10 µM): 30.1%
